Test results from US9629816B2, “Small molecule therapeutic compounds targeting thioesterase deficiency disorders and methods of using the same” (The United States of America, as represented by the …, priority 2011, dated 2017).
Several values for one entry are separate records, joined by “and”; a condition that tells them apart may be missing. Equal entries are not always repeated.

Legend:
[1] = Cleavage of thioester linkage in [14C]palmitoyl-CoA, release of free [14C]palmitate (TLC, autoradiography); type: biochemical; settings: varying concentrations; various incubation times; [14C]palmitate production
Protocol: It has been reported that thioester linkages in s-acylated proteins are labile, and that compounds having nucleophilic properties are able to disrupt such linkages. Thus, the ability of derivatives of hydroxylamine to disrupt thioester linkages in s-acylated proteins was tested. Twelve HA-derivatives, described in Table 1, were screened for their ability to cleave thioester linkage in [^14C]palmitoyl˜CoA (a model thioester substrate of PPT1), mediating the release of free [^14C]palmitic acid, a process depicted in FIG. 2. […] [^14C]-palmitoyl-CoA was incubated for 1 hour with each of the HA derivatives and the reaction mixture was resolved by thin layer chromatography (TLC) followed by autoradiography. The free [^14C]-palmitate bands were visible and quantitated by densitometric analysis of the bands.

[2] = tested on: PPT1-KO mice; assay: TEM analysis of GRODs in brain cells of PPT1-KO mice; type: in vivo, mouse; settings: PPT1-KO mice treated from 3 to 6 months of age, 1 mM in drinking water (FIG. 12)
Protocol: (§1) All animal experiments were performed according to the institutional guidelines after an animal protocol was approved by the Animal Care and Use Committee of the National Institute of Child Health and Development, National Institutes of Health. PPT1-KO mice (a gift from Dr. S. L. Hofmann, University of Texas Southwestern Medical Center at Dallas, Dallas, Tex., USA) were generated by targeted disruption of the last exon in the PPT1 gene in embryonic stem (ES) cells. These mice were subsequently backcrossed for 10 generations with wild type C57BL/6 mice in order to obtain congenic C57 background and a breeding pair was provided by Dr. Mark Sands to start the inventors' colony. Animals were housed and maintained in a pathogen-free facility. Three-month old PPT-KO mice were given NtBuHA in their drinking water (1 mM NtBuHA and 1 mM NaCl).
Cortical tissue sections were prepared from wild-type mice and untreated- as well as NtBuHA-treated PPT1-KO littermates. Cortical tissues (approximately 1 mm^3) were dissected from those animals, fixed in 2.5% glutaradlehyde in 0.1M sodium cacodylate buffer, pH 7.4 followed by three washing in 0.1 M sodium cacodylate buffer at room temperature. […]

[3] = tested on: PPT1-KO mice; assay: Western blot of caspase-9 and cleaved PARP-1 in cortical tissue homogenates of PPT1-KO mice; type: in vivo, mouse; settings: cortical tissue homogenates (FIG. 17)
Protocol: Western blot analysis was performed as using standard methodology. Briefly 30 μg of protein was resolved in 4-12% Bis tris gel (Invitrogen) and electro-transferred in PVDF membrane. The membranes were blocked with 5% non fat dried milk for 1 hour at room temperature and were then probed overnight with primary antibody at 4 C. After washing the blots were incubated with horseradish peroxidase conjugated secondary antibody (Santacruz Biotechnology) for 1 hour at room temperature and developed using enhanced chemiluminescences detection reagents (Pierce). Primary antibodies used in this study were caspase-3, caspase-9 (cell signaling) SOD2, catalase, β-Actin (US Biologicals).
It has been reported that postmortem brain tissues from INCL patients as well as those from PPT1-KO mice manifest high levels of oxidative stress, which induces neuronal apoptosis contributing to neuropathology. […] Accordingly, a terminal deoxynucleotidyl transferase dUTP nick end labeling (TUNEL) assay was performed using cortical tissue sections from wild-type, untreated PPT1-KO and NtBuHA-treated PPT1-KO mice to determine the level of apoptosis. […] Quantitative analysis of the NeuN-positive cells in brain tissues from wild-type, untreated and NtBuHA-treated PPT1-KO mice (FIG. 18D) confirmed the visual assessment.

[4] = tested on: PPT1-KO mice; assay: Blood methemoglobin level in PPT1-KO mice; type: in vivo, mouse
Protocol: The ability of the HA-derivative NtBuHA to increase methemoglobin levels was tested by placing PPT1-KO mice on a diet containing NtBuHA. After three months on the diet, the level of methemoglobin in the animal's blood was measured.

[5] = tested on: PPT1-KO mice; assay: Rotarod Performance Test, motor coordination of PPT1-KO mice; type: in vivo, mouse; settings: 6-month and 8-month old PPT1-KO mice (FIG. 19A-D)
Protocol: Motor coordination of the untreated- and NtBuHA-treated PPT1-KO mice was assessed using Rotarod) (UGO Basile, Italy) at three different speeds (4, 8 and 12 rpm). In all these speeds the direction of rotation was reversed every 15 seconds. Animals were trained twice at all speed settings for 1 minute each for 3 days. Animals were then given a rest for 1 minute between two trials. Rotarod experiments were performed for at least 60 seconds on day 4 and the amount of time a mouse was on the rotarod before falling from the rotating rod was recorded.
Since NtBuHA functionally mimics PPT1, the inventors tested 6-month and 8-month old wild-type, untreated- and NtBuHA-treated PPT1-KO mice for motor coordination and exploratory behavior. The Rotarod Performance Test, which measures parameters such as riding time (seconds) and/or endurance was used to measure motor coordination. The open field test was utilized to evaluate the exploratory behavior.

[6] = tested on: PPT1-KO mice; assay: Survival of PPT1-KO mice; type: in vivo, mouse; settings: 5.5 months after initiation; treatment from 3 months of age; 52 out of 59 mice; untreated 10%
Protocol: as §1
For this study, 3-month old PPT1-KO mice were divided into two groups. In the first group, 55 mice received no treatment (control). In the second group, 59 mice were treated with NtBuHA. The status of all mice was monitored on a daily basis.

Compound: CC(C)(C)NO [NtBuHA, N-(tert-Butyl)hydroxylamine]
- dose- and time-dependence of thioester linkage cleavage in [14C]palmitoyl-CoA [1]: cleaved the thioester linkage in a dose-dependent and time-dependent manner
- GRODs in brain cells [2]: markedly reduced number of GRODs
- caspase-9 and cleaved PARP-1 level [3]: marked reduction in caspase-9 and cleaved PARP-1 level
- % Methemoglobin ([4]; individual NtBuHA-treated PPT1-KO mice, three months on diet, blood): 0% and 0.5% and 0.7% and 0.6%
- % Methemoglobin, Mean ([4]; mean of 4 NtBuHA-treated PPT1-KO mice, three months on diet, blood): 0.45%
- effect on methemoglobin levels ([4]; treatment up to three months): does not increase methemoglobin levels
- motor function (Rotarod) [5]: retained near normal motor function
- mice still alive [6]: 88%
